Measured values reported in patent US5122448A, “Assay of anti-Epstein-Barr virus nuclear antigen antibodies with synthetic polypeptides” (Scripps Clinic and Research Foundation, priority 1990, dated 1992).
Read-outs that look alike come from different tables or passages of the source. Residues, ends and D or L forms follow the SMILES beside them.

Key:
[1] = tested on: anti-EBNA antibodies (IgG, IgM, IgA)
Procedure: Additional assays utilized in these studies wherein IgG to IgM ratios were determined to assess the state of EBV-induced disease were carried out as described in Smith et al., J. Infect. Dis., 154:885-889 (1986) and Geltosky et al., J. Clin Lab Analysis, 1:153-162 (1987).
The solution was thereafter discarded and the plates were blocked with 300 ul of 10 percent normal goat serum in phosphate-buffered saline (PBS) at pH 7.3. After 90 minutes of maintenance (incubation) at 37 degrees C., the wells were emptied and dried for 60 minutes at 37 degrees C.
At this time, 200 ul of 10 percent goat serum in PBS were added to the wells. A volume of 10 ul of patient specimen serum was admixed to each goat serum-containing well to form a solid/liquid phase admixture. That admixture was maintained for a time period of one hour at room temperature to permit binding of any antibodies present to the solid support and form a solid phase-bound immunoreactant containing those antibodies.
After washing five times with 350 ul of 0.05% Tween-20 [polyoxyethylene (20) sorbitan monolaurate] in PBS to effect separation of the solid and liquid phases, a solution of 200 ul of horseradish peroxidase-(HRPO-) conjugated mouse monoclonal antibody to human IgG or IgM (Ortho Diagnostic Systems, Raritan, N.J.) was admixed to each well to form a second solid/liquid phase admixture. This second solid/liquid admixture was maintained for another one hour time period to permit the enzyme-linked antibodies to bind to any solid phase-bound antibodies formed in the first solid/liquid phase admixture.
After separation of the solid and liquid phases, and washing of the solid phase five times using the Tween-20/PBS solution, above, color was developed by admixture of o-phenylenediamine (OPD; 2 mg of a citrate-buffered tablet dissolved in 3 ml of water; Pitman-Moore, Washington Crossing, N.J.) and hydrogen peroxide. The resulting solution was maintained for 30 minutes at room temperature. The reaction was stopped by admixture of 50 ul of 2N HCl, and the absorbance was determined at 490 nanometers (nm).
positive control ratio =reference absorbance value/mean absorbance of positive control.
The positive control was assigned a reference absorbance value (O.D.) of 1.0. […] The absorbance value for the controls and for each test specimen were multiplied by the positive control ratio to achieve a standardized ELISA value. Cutoff values (mean OD+SD) have been previously described [Geltosky et al. J. Clin. Lab. Analysis, 1:153-162 (1987)]. […] Absorbance values less than 0.7 were considered to represent an acute infection due to EBV [Smith et al., J Infect Dis., 154:885-889 (1986)].

EBNA = test: Immunoblot of WI-L2 whole cell extracts with rabbit antipeptide antisera, blocking by polypeptide; assay type: binding, Epstein-Barr virus; conditions: serum 1:10, 40 ug/ml polypeptide P62, one hour
Procedure: Exemplary receptor molecules containing antibody combining sites of this invention raised in rabbits to the polypeptides shown in Table 1 were studied using the immunoblotting procedures of Towbin, et. al., Proc. Natl. Acad. Sci., U.S.A., 76:4350-4354 (1979) and Billings, et. al., Proc. Natl. Acad. Sci., U.S.A., 80:7104-7108 (1983). Further details are provided in the Materials and Methods section (III).
Extracts of EBNA producing and non-producing (control) cells were prepared to determine if receptor molecules of this invention were useful for diagnosing EBNA expression. Cells from cultures described hereinabove were washed in phosphate-buffered saline (PBS; 150 mM NaCl, 10 mM sodium phosphate, pH 7.4) containing 0.2 mM phenylmethylsulfonyl fluoride, swollen for 5 minutes in reticulocyte standard buffer (RSB; 10 mM NaCl, 10 mM Tris-HCl, pH 7.4, 1.5 mM MgCl2, 0.2 mM phenylmethylsulfonyl fluoride), and lysed by sonication in 3-5 volumes of RBS adjusted to 0.2-0.35 molar (M) NaCl. After 30 minutes on ice, the sonicate was centrifuged at 10,000×g for 15 minutes to remove cellular debris.
Cell extracts obtained above were assayed for EBNA using human sera known to contain anti-EBNA antibodies or exemplary receptor molecules of this invention. The extracts were either concentrated by precipitation with 2 volumes of ethanol at -20 degrees C. for about 18 hours, and were then dissolved in sample buffer [SB; 10% glycerol, 2% 2-mercaptoethanol, 1% sodium dodecyl sulfate (SDS), 0.002% bromphenol blue, 40 mM Tris-HCl (pH 7.4)] or diluted 1:6 in sample buffer for SDS-polyacrylamide gel electrophoresis (SDS-PAGE). 7.5% Polyacrylamide gels were cast and run according to the procedure of Laemmli, Nature, […] (1970), applying 50 to 200 micrograms of total protein per lane. […]
Anti-peptide antibodies bound to EBNA protein were detected by reacting the blots with an indicating means. […]

[2] = Circular dichroism spectroscopy; assay type: physicochemical; conditions: 1 mg/ml in phosphate buffered saline
Procedure: The conformational properties of the polypeptides were investigated to elucidate any secondary structure that might be necessary for polypeptide immunoreaction with human anti-EBNA antibodies. The polypeptides were dissolved at a concentration of 1 mg/ml in phosphate-buffered saline (PBS). Spectra were taken using 1 ml samples in a Cary 61 spectropolarimeter (Cary Instruments, Applied Physics Corp., Monrovia, Calif.) interfaced and automated with a Digital Equipment Corporation 11/02 computer (Digital Equipment Corporation, Maynard, Mass.).

[3] = acute IM Patient 1, 1 days post onset
[4] = acute IM Patient 1, 29 days post onset
[5] = acute IM Patient 1, 95 days post onset
[6] = acute IM Patient 1, 184 days post onset
[7] = acute IM Patient 1, 373 days post onset
[8] = acute IM Patient 2, 17 days post onset
[9] = acute IM Patient 2, 28 days post onset
[10] = acute IM Patient 2, 68 days post onset
[11] = acute IM Patient 2, 194 days post onset
[12] = acute IM Patient 2, 404 days post onset
[13] = acute IM Patient 8, 8 days post onset
[14] = acute IM Patient 8, 38 days post onset
[15] = acute IM Patient 8, 109 days post onset
[16] = acute IM Patient 8, 404 days post onset
[17] = acute IM Patient 11, 2 days post onset
[18] = acute IM Patient 11, 23 days post onset
[19] = acute IM Patient 11, 372 days post onset
[20] = acute IM Patient 11, 1,519 days post onset

Compound: C[C@H](N)C(=O)NCC(=O)N[C@@H](C)C(=O)NCC(=O)NCC(=O)NCC(=O)N[C@@H](C)C(=O)NCC(=O)NCC(=O)N[C@@H](C)C(=O)NCC(=O)N[C@@H](C)C(=O)NCC(=O)NCC(=O)NCC(=O)N[C@@H](C)C(=O)NCC(=O)NCC(=O)N[C@@H](C)C(=O)NCC(=O)O [Polypeptide P62, H--Ala--Gly--Ala--Gly--Gly--Gly--Ala--Gly--Gly--Ala--Gly--Ala--Gly--Gly--Gly--Ala--Gly--Gly--Ala--Gly--OH] (H-AGAGGGAGGAGAGGGAGGAG-OH)
- IgM anti-peptide P62 antibodies during acute phase of CMV disease ([1]; 10 patients with CMV-IM): All 10 patients showed a pronounced increase
- Sera positive for NPC in IgA anti-P62 assay ([1]; 13 sera from NPC patients): 10 of 13
- IgA level ([1]; Heterophil-Positive Sera marked with footnote 2 (samples 2 and 6)): > 0.300 OD 490
- IgG OD 490 [1, 3]: 0.011 OD 490
- IgM OD 490 [1, 3]: 0.189 OD 490
- Ratio IgG/IgM [1, 3]: 0.058
- IgG OD 490 [1, 4]: 0.023 OD 490
- IgM OD 490 [1, 4]: 0.527 OD 490
- Ratio IgG/IgM [1, 4]: 0.043
- IgG OD 490 [1, 5]: 0.162 OD 490
- IgM OD 490 [1, 5]: 0.329 OD 490
- Ratio IgG/IgM [1, 5]: 0.492
- IgG OD 490 [1, 6]: 0.552 OD 490
- IgM OD 490 [1, 6]: 0.245 OD 490
- Ratio IgG/IgM [1, 6]: 2.253
- IgG OD 490 [1, 7]: 0.858 OD 490
- IgM OD 490 [1, 7]: 0.152 OD 490
- Ratio IgG/IgM [1, 7]: 5.644
- IgG OD 490 [1, 8]: 0.125 OD 490
- IgM OD 490 [1, 8]: 0.682 OD 490
- Ratio IgG/IgM [1, 8]: 0.183
- IgG OD 490 [1, 9]: 0.167 OD 490
- IgM OD 490 [1, 9]: 0.674 OD 490
- Ratio IgG/IgM [1, 9]: 0.247
- IgG OD 490 [1, 10]: 0.112 OD 490
- IgM OD 490 [1, 10]: 0.459 OD 490
- Ratio IgG/IgM [1, 10]: 0.244
- IgG OD 490 [1, 11]: 0.233 OD 490
- IgM OD 490 [1, 11]: 0.596 OD 490
- Ratio IgG/IgM [1, 11]: 0.390
- IgG OD 490 [1, 12]: 0.674 OD 490
- IgM OD 490 [1, 12]: 0.665 OD 490
- Ratio IgG/IgM [1, 12]: 1.013
- IgG OD 490 [1, 13]: 0.319 OD 490
- IgM OD 490 [1, 13]: 1.046 OD 490
- Ratio IgG/IgM [1, 13]: 0.305
- IgG OD 490 [1, 14]: 0.165 OD 490
- IgM OD 490 [1, 14]: 0.696 OD 490
- Ratio IgG/IgM [1, 14]: 0.237
- IgG OD 490 [1, 15]: 0.141 OD 490
- IgM OD 490 [1, 15]: 0.603 OD 490
- Ratio IgG/IgM [1, 15]: 0.234
- IgG OD 490 [1, 16]: 1.304 OD 490
- IgM OD 490 [1, 16]: 0.562 OD 490
- Ratio IgG/IgM [1, 16]: 2.320
- IgG OD 490 [1, 17]: 0.005 OD 490
- IgM OD 490 [1, 17]: 0.055 OD 490
- Ratio IgG/IgM [1, 17]: 0.091
- IgG OD 490 [1, 18]: 0.016 OD 490
- IgM OD 490 [1, 18]: 0.702 OD 490
- Ratio IgG/IgM [1, 18]: 0.023
- IgG OD 490 [1, 19]: 0.878 OD 490
- IgM OD 490 [1, 19]: 0.643 OD 490
- Ratio IgG/IgM [1, 19]: 1.365
- IgG OD 490 [1, 20]: 1.079 OD 490
- IgM OD 490 [1, 20]: 0.199 OD 490
- Ratio IgG/IgM [1, 20]: 5.422
- IgG/IgM ratio ([1]; patient five (EBV-IM), May 1985 specimen, late convalescent phase): exceeded 0.7
- IgG/IgM ratio ([1]; patient one (CMV-IM), during the acute illness): 0.661
- IgG/IgM ratio ([1]; patient one (CMV-IM), pre-illness samples): ~2
- Patients scored positive in the EBNA P62 ELISA by the ratio analysis ([1]; ten patients with acute CMV-IM infection): eight of ten
- Recognition of EBNA by anti-P62 serum after preincubation with polypeptide (EBNA): inhibited
- Conformation by circular dichroism spectrum [2]: relatively stable secondary structure
